Results on 2 sequences are retold here after patent US8183210B2, “Reconstituted surfactants having improved properties” (Chiesi Farmaceutici S.p.A., priority 2006, dated 2012).

Bridge positions count the residues as written; N and C are the ends. Ends that are not written are not given here.

In the experiment the test system is premature newborn rabbits. The experiment in a line: Surfactant preparations in ventilated premature newborn rabbits without PEEP (model of RDS): lung gas volumes and tidal volumes. To be noted: no PEEP; for lung gas volumes (median): reconstituted surfactant, 2% w/w of each named peptide in DPPC:POPG 68:31 w/w, 80 mg/ml, 2.5 ml/kg at birth, FIG. 3. The class given is in vivo, rabbit. As to the method: The surfactant preparations were assayed in premature newborn rabbits, obtained by hysterectomy at the gestational age of 27 days. The experiments were performed without applying a positive end expiratory pressure (PEEP). As the SP-C analog, the polypeptide referred to as SP-C33 was used which was prepared according to Example 1. As the analog of the protein SP-B, oxidized Mini-B (ox Mini-B) was used which was prepared according to Example 2.
The animals were treated at birth with reconstituted surfactant preparations containing, as lipid carrier, the phospholipid mixture DPPC:POPG in the ratio 68:31 w/w. The phospholipids were mixed with 2 or 4% w/w SPC-33, 2% w/w ox Mini-B, or 2% w/w SPC-33 plus 2% w/w ox Mini-B. Animals receiving the same dose of Curosurf® served as positive controls, and non-treated littermates served as negative controls. All surfactant preparations were administered at a concentration of 80 mg/ml and at a standard dose of 2.5 ml/kg.
The immature newborn rabbits were ventilated in parallel with a standardized sequence of peak insufflation pressures. To open up the lungs, pressure was first set at 35 cmH2O for 1 minute. After this recruitment manoeuvre, pressure was lowered to 25 cmH2O for 15 minutes and further on to 20 and 15 cm H2O. Finally, the pressure was raised again to 25 cmH2O for 5 minutes, after which the lungs were ventilated for additional 5 minutes with nitrogen and then excised for gas volume measurements. Both lung gas volumes and tidal volumes expressed as ml/kg were measured, and the results, given as median values, are reported in FIGS. 3 and 4, respectively.

On to “CWLCRALIKRIQAMIPKGGRMLPQLVCRLVLRCS (disulfide 1-33, 4-27) [ox Mini-B, SP-B analog]”, for which the “lung gas volumes (median)” value is recorded as “about 2 ml/kg”. For “IPSSPVHLKRLKLLLLLLLLILLLILGALLMGL [SP-C33]”, the “lung gas volumes (median)” value is recorded as “about 4 ml/kg”. Also, where the note is “SP-C33 content raised from 2 to 4% w/w in DPPC:POPG 68:31”, the “lung gas volumes, effect of increasing SP-C33 content” value is “did not increase lung gas volumes”.
